Key:
algae of genus Chlorella = assay: DCMU and fluorescence under low actinic light, Chlorella culture; format: cell-based; details: 100 nanomolar DCMU
Description: (§1) FIG. 3 (“FIG. 3”) is a graph of relative fluorescence rise versus percentage contaminating species for the algae of genus Chlorella as referred to in FIG. 2. In FIG. 3, the impact of the actinic light is seen in the relative fluorescence rise to the maximum fluorescence yield observed during an intense saturating pulse, during the low level actinic light treatment for the Chlorella culture, the same rise being absent from the Nannochloropsis culture.

[1] = system: weed algae of genus Tetraselmis; assay: DCMU administered to 1 million liter open pond raceway systems with Nannochloropsis cultures invaded by Tetraselmis; format: in vivo
Procedure: The inventors utilized commercially available DCMU at a field research site to kill the persistent weed algae of genus Tetraselmis. DCMU was administered to six 1 million liter open pond raceway systems wherein Nannochloropis cultures were cultivated at a density of approximately 270 milligrams per liter. Tetraselmis invasion in the ponds is shown in FIG. 6, and is quantified in Table 2 as a percentage of mass. The higher the percentage of mass, the higher the Tetraselmis invasion. The six 1 million liter open pond raceway systems are denoted in FIG. 6, Table 1, and Table 2 as Pond A1, Pond A2, Pond A3, Pond B1, Pond B2, and Pond B3.
Consequently, as little as 100 grams, and as much as 400 grams, were needed. The commercial DCMU source was 90% DCMU by mass, so 90 grams and 360 grams effective amounts of DCMU (M.W. 233 amu) in 1 million liters of volume converts to DCMU concentrations of 0.38 micromolar and 1.55 micromolar, respectively.
Note “D” denotes the dumping of the contents of the pond.

[2] = system: algae of genus Nannochloropsis ("W2"); assay: DCMU incubation and fluorescence under low actinic light, Nannochloropsis culture; format: cell-based; details: 100 nanomolar DCMU
Procedure: Typically, DCMU is instantaneously efficacious at concentrations in the 0.1 micromolar to 50 micromolar range. The inventors herein discovered that algae of the genus Nannochloropsis, however, generally requires higher concentrations and relatively lengthy incubation periods for the effects of DCMU to take place.
as §1

[3] = corrected for 90% DCMU by mass, 1 million liters

CN(C)C(=O)Nc1ccc(Cl)c(Cl)c1 [DCMU, 3-(3,4-dichlorophenyl)-1,1-dimethylurea]
effect of actinic light on PSII reaction centers in presence of DCMU, Chlorella (algae of genus Chlorella; 50 micromolar quanta m^-2 s^-1 actinic light, FIG. 2): completely closes PSII reaction centers
herbicidal effect on Chlorella (algae of genus Chlorella; Chlorella isolated from an invaded pond): strong herbicidal effect
effective DCMU concentration, lowest ([1]; 90 grams in 1 million liters): 0.38 µM
effective DCMU concentration, highest ([1]; 360 grams in 1 million liters): 1.55 µM
effective amount of DCMU, highest [1, 3]: 360 grams
effective amount of DCMU, lowest [1, 3]: 90 grams
resistance of Nannochloropsis to DCMU ([2]; 24 hour incubation period): completely resistant
effect of actinic light on PSII reaction centers in presence of DCMU, Nannochloropsis ([2]; 50 micromolar quanta m^-2 s^-1 actinic light, FIG. 1): barely has an effect

— patent publication US20130130909A1, “DCMU RESISTANCE IN NANNOCHLOROPSIS” (priority 2011, published 2013)
